Measured values published in patent US11865103B2, “Methods of treating disorders associated with glycosylation defective proteins” (CASE WESTERN RESERVE UNIVERSITY, priority 2016, dated 2024).

Experiments:
hCLRN1-YFP = experiment: Localization of wild-type hCLRN1-YFP in neuromast hair cells of hCLRN1-YFP; clrn1^+/+ larvae treated with SERCA inhibitors; assay type: in vivo, zebrafish; conditions: for Effect on pattern of localization of wild-type hCLRN1-YFP to the hair cell's bundle or plasma membrane: clrn1^+/+ larvae treated with TG or ART; for YFP intensity in the ROI in hair bundles (Mean±SEM): clrn1^+/+ larvae, 1 uM TG or 0.4 uM ART + 0.01% DMSO in E3 medium, E3 medium 62.82±2.15
Description: (§1) Thapsigargin (TG, 1 mg, Sigma-Aldrich, #T9033) stock in 100% DMSO was diluted in E3 medium to make the required final concentration of the drug. Five different concentrations that were earlier reported to induce ER stress and are non-toxic or lower lethal dose (LD50) in the zebrafish (0.1, 0.5, 1.0, 2.5, 5 μM concentrations) were used in this study. A total of 25 larvae per dosage and treatment duration from the genotypes hCLRN1^N48K-YFP; clrn1^+/+ and hCLRN1-YFP; clrn1^+/+, no older than 72 hours post fertilization (hpf) at the start of the experiment, were placed in a well of 12-well uncoated culture plate (BD Falcon, Canaan, CT). For ER stress induction, larvae were incubated in different dosage of TG from 1 hr to overnight at 28.5° C., followed by three times wash with E3 medium at 28.5° C. (Table 2) and hair cells from the hCLRN1^N48K-YFP; clrn1^+/+ and hCLRN1-YFP; clrn1^+/+ lines were examined for the respective protein distribution pattern in the hair cell bundle and the cell body. Live confocal images of ‘O’ and ‘ML1’ neuromasts per larvae were capture using Leica SP2 confocal microscope with 40× oil immersion objective. Unadjusted 1 micron middle section images of four hair bundles per ML1 neuromast of larvae from TG treated and untreated groups were analyzed using Image J software version v. 1.48 (FIG. 4). The hair bundle trafficked amount of hCLRN1^N48K protein corresponds to the change in YFP intensity in the hair bundle in the TG treated larvae. Quantification of YFP fluorescence intensity was carried out as described in the previous experiment for unconventional trafficking of hCLRN1^N48K-YFP by hGRASP55 cargos. […] Student's t-test was used to confirm the observed changes in the YFP intensity in the hair bundles of TG treatment compared to untreated hCLRN1^N48K-YFP; clrn1^+/+ larvae, is significant (FIG. 4J).
Arthemisinin (ART, 100 mg, Sigma-Aldrich, #361593) in 100% DMSO was diluted in E3 medium to make the final concentration. Five different concentrations within the range of reported ER stress inducing level in the zebrafish (0.1, 0.25, 0.4, 0.5, and 1 μM concentrations) were used in this study. A total of 25 larvae, no older than 72 hpf at the start of the experiment, were placed in a well of 12-well uncoated culture plate (BD 35 Falcon, Canaan, CT). […] From the captured confocal images of these neuromast hair cells, unadjusted 1 micron middle section images of 4 mature hair bundles from ML1 neuromast per larvae were considered for the YFP intensity quantification in unadjusted ROI covering the middle section of each hair bundles using the imageJ software. […] Quantification of YFP fluorescence intensity was carried out as described in the previous experiment for unconventional trafficking of hCLRN1^N48K-YFP by hGRASP55 cargos. […]

[1] = tested on: hCLRN1^N48K-YFP; clrn1^+/+ larvae; experiment: Larval survival/lethality by TG or ART dose and treatment duration; assay type: in vivo, zebrafish; parameters: key: ‘S’ = Surviving; ‘L’ = Lethal
Description: as §1
Arthemisinin (ART, 100 mg, Sigma-Aldrich, #361593) in 100% DMSO was diluted in E3 medium to make the final concentration. Five different concentrations within the range of reported ER stress inducing level in the zebrafish (0.1, 0.25, 0.4, 0.5, and 1 μM concentrations) were used in this study. A total of 25 larvae, no older than 72 hpf at the start of the experiment, were placed in a well of 12-well uncoated culture plate (BD 35 Falcon, Canaan, CT). For ER stress induction, larvae were exposed in different dosage of ART for different duration at 28.5° C. (Table 3) and washed three times with E3 medium, and hair cells from the hCLRN1-YFP; clrn1^+/+ larvae and hCLRN1^N48K-YFP; clrn1^+/+ larvae were examined for the respective protein distribution pattern in the hair cell bundle and the cell body. Live confocal Z-stack images of otic ‘O’ and middle ‘ML’ neuromasts per larvae of hCLRN1-YFP; clrn1^+/+ larvae and hCLRN1^N48K-YFP; clrn1^+/+ genotypes from the untreated group in the E3 medium, 0.01% DMSO treatment group and ART treatment group were capture using Leica SP2 confocal microscope at 40× oil immersion objective. Hair cells from 2 otic (0) and 2 middle (ML) neuromasts per larvae were examined for the change in YFP intensity in the hair bundle and cell body. From the captured confocal images of these neuromast hair cells, unadjusted 1 micron middle section images of 4 mature hair bundles from ML1 neuromast per larvae were considered for the YFP intensity quantification in unadjusted ROI covering the middle section of each hair bundles using the imageJ software. […] The hair bundle trafficked amount of hCLRN1^N48K protein corresponds to the change in YFP intensity in the hair bundle in the ART treated larvae. Quantification of YFP fluorescence intensity was carried out as described in the previous experiment for unconventional trafficking of hCLRN1^N48K-YFP by hGRASP55 cargos. Student's t-test was used to confirm the observed changes in the YFP intensity in the hair bundles of ART treatment compared to untreated and TG treated hCLRN1^N48K-YFP; clrn1^+/+ larvae, is significant (FIG. 4J).

For C[C@@H]1CC[C@H]2[C@@H](C)C(=O)O[C@@H]3O[C@@]4(C)CC[C@@H]1[C@]32OO4 [ART, Artemisinin], the “Effect on pattern of localization of wild-type hCLRN1-YFP to the hair cell's bundle or plasma membrane” value (hCLRN1-YFP) was “did not affect the pattern of localization”, the “YFP intensity in the ROI in hair bundles (Mean±SEM)” value (hCLRN1-YFP) was 71.32±2.05 and the Larvae survival ([1]; ART 0.4 μM, exposure 8 h) was “L”. For the same molecule, the Larvae survival ([1]; ART 0.4 μM, exposure 10 h) was “L”, the Larvae survival ([1]; ART 0.5 μM, exposure 1 h) was “L” and the Larvae survival ([1]; ART 0.5 μM, exposure 2 h) was “L”. For the same molecule, the Larvae survival ([1]; ART 0.5 μM, exposure 4 h) was “L”, the Larvae survival ([1]; ART 0.5 μM, exposure 6 h) was “L” and the Larvae survival ([1]; ART 0.5 μM, exposure 8 h) was “L”. The Larvae survival ([1]; ART 0.5 μM, exposure 10 h) was “L”, the Larvae survival ([1]; ART 1.0 μM, exposure 1 h) was “L” and the Larvae survival ([1]; ART 1.0 μM, exposure 2 h) was “L”. For the same molecule, the Larvae survival ([1]; ART 1.0 μM, exposure 4 h) was “L”, the Larvae survival ([1]; ART 1.0 μM, exposure 6 h) was “L” and the Larvae survival ([1]; ART 1.0 μM, exposure 8 h) was “L”. For the same molecule, the Larvae survival ([1]; ART 1.0 μM, exposure 10 h) was “L”.
C/C=C(/C)C(=O)O[C@H]1C(C)=C2[C@H]([C@@H]1OC(=O)CCCCCCC)[C@@](C)(OC(C)=O)C[C@H](OC(=O)CCC)[C@@]1(O)[C@H]2OC(=O)[C@@]1(C)O [TG, Thapsigargin] was tested, and the “Effect on pattern of localization of wild-type hCLRN1-YFP to the hair cell's bundle or plasma membrane” value (hCLRN1-YFP) was “did not affect the pattern of localization”, the “YFP intensity in the ROI in hair bundles (Mean±SEM)” value (hCLRN1-YFP) was 68.57±1.36 and the Larvae survival ([1]; TG 0.1 μM, exposure 1 h) was “S”. For the same molecule, the Larvae survival ([1]; TG 0.1 μM, exposure 2 h) was “S”, the Larvae survival ([1]; TG 0.1 μM, exposure 3 h) was “S” and the Larvae survival ([1]; TG 0.1 μM, exposure 4 h) was “S”. The Larvae survival ([1]; TG 0.1 μM, exposure 8 h) was “S”, the Larvae survival ([1]; TG 0.1 μM, exposure 16 h) was “S” and the Larvae survival ([1]; TG 0.5 μM, exposure 1 h) was “S”. The Larvae survival ([1]; TG 0.5 μM, exposure 2 h) was “S”, the Larvae survival ([1]; TG 0.5 μM, exposure 3 h) was “S” and the Larvae survival ([1]; TG 0.5 μM, exposure 4 h) was “S”. The Larvae survival ([1]; TG 0.5 μM, exposure 8 h) was “S”, the Larvae survival ([1]; TG 0.5 μM, exposure 16 h) was “L” and the Larvae survival ([1]; TG 1.0 μM, exposure 1 h) was “S”. The Larvae survival ([1]; TG 1.0 μM, exposure 2 h) was “S”, the Larvae survival ([1]; TG 1.0 μM, exposure 3 h) was “S” and the Larvae survival ([1]; TG 1.0 μM, exposure 4 h) was “S”. The Larvae survival ([1]; TG 1.0 μM, exposure 8 h) was “L”, the Larvae survival ([1]; TG 1.0 μM, exposure 16 h) was “L” and the Larvae survival ([1]; TG 2.5 μM, exposure 1 h) was “L”. The Larvae survival ([1]; TG 2.5 μM, exposure 2 h) was “L”, the Larvae survival ([1]; TG 2.5 μM, exposure 3 h) was “L” and the Larvae survival ([1]; TG 2.5 μM, exposure 4 h) was “L”. The Larvae survival ([1]; TG 2.5 μM, exposure 8 h) was “L”, the Larvae survival ([1]; TG 2.5 μM, exposure 16 h) was “L” and the Larvae survival ([1]; TG 5.0 μM, exposure 1 h) was “L”. The Larvae survival ([1]; TG 5.0 μM, exposure 2 h) was “L”, the Larvae survival ([1]; TG 5.0 μM, exposure 3 h) was “L” and the Larvae survival ([1]; TG 5.0 μM, exposure 4 h) was “L”. The Larvae survival ([1]; TG 5.0 μM, exposure 8 h) was “L” and the Larvae survival ([1]; TG 5.0 μM, exposure 16 h) was “L”.
